Patent US5474996A, “Pyrimidine derivatives” (Roussel Uclaf, priority 1991, dated 1995)

Biological target: T1, Angiotensin II Receptor (Rattus norvegicus, UniProt P25095)
T1 construct: A fresh membrane preparation obtained from rat's liver was used; from tissue; host or cells: rat liver, fresh membrane preparation
T1 sequence (P25095 1-359): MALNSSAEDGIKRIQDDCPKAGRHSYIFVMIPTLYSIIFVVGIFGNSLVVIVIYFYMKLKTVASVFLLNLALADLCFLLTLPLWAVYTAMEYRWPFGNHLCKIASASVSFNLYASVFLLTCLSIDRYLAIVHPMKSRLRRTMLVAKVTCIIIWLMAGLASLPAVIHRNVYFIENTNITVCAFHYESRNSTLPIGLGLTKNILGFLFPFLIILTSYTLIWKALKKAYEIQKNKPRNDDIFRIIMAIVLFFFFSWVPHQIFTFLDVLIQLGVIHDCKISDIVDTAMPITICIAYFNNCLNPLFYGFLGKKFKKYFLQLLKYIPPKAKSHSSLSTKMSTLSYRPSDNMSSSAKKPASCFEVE
Experiment: Test on the Angiotensin II Receptor: displacement of 125I angiotensin II from a fresh rat liver membrane preparation
Format: binding
Conditions: rat liver membranes; 125I angiotensin II (25,000 DPM/tube); Tris buffer pH 7.4; 25° C. for 150 minutes; 7 concentrations; read-out: 50% inhibiting concentration (IC50), concentration necessary to displace 50% of the radioactivity specifically fixed on the receptor
Method: A fresh membrane preparation obtained from rat's liver was used and the tissue was ground in a polytron in a Tris 50mMpH 7.4 buffer. The grinding was followed by 3 centrifugations at 30,000 g for 15 minutes with intermediate collection of pellets in the Tris buffer pH 7.4. The last pellets were suspended in an incubation buffer (Tris 20 mM, NaCl […], KCl 10 mM, glucose 5 mM, MgCl2 10 mM, PMSF 0.3 mM, bacitracin 0.1 mM, BSA 0.2%). The 2 ml of aliquoted fractions were distributed in hemolysis tubes and ^125 I angiotensin II (25,000 DPM/tube) and the product to be studied were added. The product was first tested at 3×10^-5 M in triplicate. When the product to be tested displaced more than 50% of the radioactivity specifically linked to the receptor, it was tested again in a range of 7 concentrations to determine the concentration which inhibited 50% of the radioactivity specifically linked to the receptor. In this way, the 50% inhibiting concentration was determined.
The non-specific bond was determined by the addition of the product of Example 94 of the European Patent No. 0,253,310, at 10^-5 M (in triplicate). Incubation took place at 25° C. for 150 minutes, followed by returning to a water bath at 0° C. for 5 minutes, vacuum filtration, rinsing with Tris buffer pH 7.4 and counting the radioactivity in the presence of scintilling Triton. […]

## CCCCc1nc(Cl)c(CC(=O)O)c(Cc2ccc(-c3ccccc3C(=O)O)cc2)n1 [Example 8, 2-butyl-4-[(2'-carboxy-(1,1'-biphenyl)-4-yl)-methyl)-6-chloro-5-pyrimidineacetic acid]
  IC50: 242 nM
